Experimental data published in the CombiSolv-Exp solvation set (Vermeire and Green 2021).

Assay: solvent given as SMILES

c1ccc2c(c1)Cc1ccccc1-2
Settings	solvation free energy, 298 K [kcal/mol]
in CC(=O)N(C)C	-10.4
in CC(C)(C)O	-8.84
in CC(C)CC(C)(C)C	-9.32
in CC(C)CCO	-8.95
in CC(C)CO	-9.21
in CC(C)O	-8.92
in CCC(C)O	-8.95
in CCCC(C)O	-9.03
in CCCCC(CC)CO	-9.14
in CCCCCC	-9.29
in CCCCCCC	-9.3
in CCCCCCCC	-9.29
in CCCCCCCCC=CCCCCCCCC(=O)OCC(COC(=O)CCCCCCCC=CCCCCCCCC)OC(=O)CCCCCCCC=CCCCCCCCC	-9.74
in CCCCCCCCCC	-9.32
in CCCCCCCCCCO	-9.33
in CCCCCCCCO	-9.32
in CCCCCCCO	-9.33
in CCCCCCO	-9.26
in CCCCCO	-9.24
in CCCCO	-9.15
in CCCO	-9.09
in CCO	-8.93
in CN1CCCC1=O	-10.5
in CO	-8.85
in O	-3.34

Nc1ccc(Cc2ccc(N)cc2)cc1
Settings	solvation free energy, 298 K [kcal/mol]
in O	-16.3

Clc1ccc(-c2ccc(Cl)c(Cl)c2Cl)c(Cl)c1Cl
Settings	solvation free energy, 298 K [kcal/mol]
in O	-3.6

CC(C)C
Settings	solvation free energy, 298 K [kcal/mol]
in C1CCC2CCCCC2C1	-2
in CC1COC(=O)O1	-0.87
in CC(C)(C)O	-1.86
in CC(C)=O	-1.87
in CC(C)CCO	-1.8
in CC(C)CO	-1.8
in CC(C)O	-1.9
in CCC(C)(C)O	-1.92
in CCC(C)CO	-1.8
in CCC(C)O	-1.79
in CCC(O)CC	-1.83
in CCCC(C)O	-1.8
in CCCCC	-2.38
in CCCCCC	-2.33
in CCCCCCC	-2.31
in CCCCCCCC	-2.3
in CCCCCCCCC	-2.2
in CCCCCCCCCC	-2.23
in CCCCCCCCCCCCCCCC	-1.91
in CCCCCCCO	-1.68
in CCCCCO	-1.79
in CCCCO	-1.91
in CCCO	-1.77
in CCO	-1.64
in CCOC(C)=O	-2.16
in CCOCC	-2.33
in CN1CCCC1=O	-1.2
in CN(C)C=O	-1.32
in CN(C)P(=O)(N(C)C)N(C)C	-1.53
in CO	-1.46
in COCCOCCOCCOC	-1.18
in CS(C)=O	-0.53
in Cc1ccc(C)cc1	-2.06
in Cc1cccc(C)c1	-2.07
in Cc1ccccc1C	-2.04
in ClC(Cl)(Cl)Cl	-2.37
in Clc1ccccc1	-2.25
in Nc1ccccc1	-1.07
in O	2.32
in O=CN1CCOCC1	-0.64
in OC1CCCCC1	-1.55
in OCCCOCCCO	-0.87
in OCCO	-0.19
in OCc1ccccc1	-1.16
in c1ccccc1	-2.08

CCNc1nc(NC(C)C)nc(OC)n1
Settings	solvation free energy, 298 K [kcal/mol]
in O	-10.2

COC(C)(C)C
Settings	solvation free energy, 298 K [kcal/mol]
in CC(=O)N(C)C	-3.29
in CC(C)(C)O	-3.81
in CC(C)CC(C)(C)C	-3.58
in CC(C)CCl	-3.89
in CCC(C)Cl	-3.88
in CCCCCCC	-3.54
in CCCCCCCC	-3.51
in CCCCCCCCCC	-3.48
in CCCCCCCCCCCCCCCC	-3.22
in CCCCCCCCCCO	-3.73
in CCCCCCCCO	-3.52
in CCCCCCO	-3.55
in CCCCCl	-3.91
in CCCCN(C=O)CCCC	-3.34
in CCN1CCCC1=O	-3.21
in CCN(CC)C(C)=O	-3.4
in CCNC(C)=O	-3.26
in CCNC=O	-3.21
in CN1CCCCC1=O	-3.22
in CN(C)C=O	-3.18
in CNC(C)=O	-3.12
in CNC=O	-3.08
in CO	-3.78
in COC(=O)OC	-3.52
in ClC(Cl)(Cl)Cl	-3.94
in ClC(Cl)Cl	-4.88
in O	-2.02
in [2H]O[2H]	-2.15

CCCC(C)C(C)O (centres undefined)
Settings	solvation free energy, 298 K [kcal/mol]
in CCCCCCCC	-5.31
in CCCCCCCCCC	-5.27

Nc1cc([N+](=O)[O-])cc(Cl)c1O
Settings	solvation free energy, 298 K [kcal/mol]
in O	-10.2

O=C(c1ccccc1)C(O)c1ccccc1 (centres undefined)
Settings	solvation free energy, 298 K [kcal/mol]
in C1COCCO1	-16.5
in CC(C)(C)O	-14.6
in CC(C)CCO	-14.6
in CC(C)CO	-14.6
in CC(C)O	-14.6
in CCC(C)O	-14.6
in CCCC(C)O	-14.5
in CCCCCCCCCCO	-14.5
in CCCCCCCCO	-14.6
in CCCCCCCO	-14.6
in CCCCCCO	-14.6
in CCCCCO	-14.7
in CCCCO	-14.7
in CCCCOC(C)=O	-15.4
in CCCCOCCCC	-14.2
in CCCO	-14.9
in CCO	-15
in CCOC(C)=O	-15.7
in CCc1ccccc1	-14.9
in COC(C)(C)C	-14.8
in COC(C)=O	-15.9
in Cc1ccc(C)cc1	-15
in Cc1ccccc1	-15.2
in Cc1ccccc1C	-15.1
in ClC(Cl)(Cl)Cl	-14.4
in ClC(Cl)Cl	-16.2
in ClCCCl	-16.1
in O	-11.9
in c1ccccc1	-15.6

CCCC(=O)c1c(C)[nH]n(-c2ccccc2)c1=O
Settings	solvation free energy, 298 K [kcal/mol]
in O	-9.51

CC(C)(C)Br
Settings	solvation free energy, 298 K [kcal/mol]
in Brc1ccccc1	-3.89
in C1CCOC1	-3.87
in C1COCCO1	-3.81
in C=CCCCCCCCCCCCCCC	-3.56
in CC(=O)N(C)C	-3.52
in CC(C)(C)O	-3.36
in CC(C)=O	-3.86
in CC(C)O	-3.23
in CCCCCC	-3.75
in CCCCO	-3.3
in CCCO	-3.19
in CCOC(C)=O	-4.05
in CCOCC	-3.85
in CN1CCCC1=O	-3.44
in CN(C)C=O	-3.59
in ClC(Cl)(Cl)Cl	-4.13
in ClCCCl	-4.02
in Clc1ccccc1	-3.93
in N#Cc1ccccc1	-3.64
in O	0.85

Clc1cccc(Cl)c1-c1c(Cl)cccc1Cl
Settings	solvation free energy, 298 K [kcal/mol]
in O	-2.17

CCN(CC)CC
Settings	solvation free energy, 298 K [kcal/mol]
in Brc1ccccc1	-4.47
in C1CCOC1	-4.59
in C1COCCO1	-4.06
in CC1COC(=O)O1	-2.89
in CC#N	-3.66
in CC(=O)c1ccccc1	-3.93
in CC(C)(C)O	-4.38
in CC(C)=O	-4.05
in CC(C)CCO	-4.88
in CC(C)O	-4.55
in CC(Cl)(Cl)Cl	-4.63
in CCC#N	-4.03
in CCC(C)=O	-4.16
in CCC(C)O	-4.82
in CCCCCC	-4.49
in CCCCCCC	-4.47
in CCCCCCCCCCCCCCCC	-3.99
in CCCCCO	-4.97
in CCCCCl	-4.57
in CCCCO	-4.85
in CCCO	-4.82
in CCO	-4.87
in CCOC(=O)c1ccccc1	-4.06
in CCOC(C)=O	-4.23
in CCOCC	-4.45
in CN(C)C=O	-3.57
in CO	-5.24
in Cc1ccc(C)cc1	-4.52
in Cc1ccccc1	-4.66
in ClC1CCCCC1	-4.29
in ClC(Cl)(Cl)Cl	-4.82
in ClC(Cl)C(Cl)Cl	-5.86
in ClC(Cl)Cl	-5.61
in ClCCCl	-4.38
in ClCCl	-4.98
in Clc1ccccc1	-4.56
in Ic1ccccc1	-4.33
in N#Cc1ccccc1	-4.05
in O	-3.22
in O=C1CCCCC1	-4.11
in c1ccccc1	-4.6

Clc1ccc(Cl)c(-c2ccccc2)c1
Settings	solvation free energy, 298 K [kcal/mol]
in O	-2.46

CCCCCC(=O)CC(=O)CCCCC
Settings	solvation free energy, 298 K [kcal/mol]
in O	-3.68

C=CCC(C)C
Settings	solvation free energy, 298 K [kcal/mol]
in C=CCCCCCCCCCCCCCC	-3.23
in O	1.9

Cc1ccc(Br)cc1
Settings	solvation free energy, 298 K [kcal/mol]
in O	-1.39

FC(F)(Cl)C(F)(Cl)Cl
Settings	solvation free energy, 298 K [kcal/mol]
in C1CCOC1	-3.37
in CC(C)=O	-3.31
in CCC(C)=O	-3.36
in CCOC(C)=O	-3.4
in COC(C)(C)C	-3.62
in COC(C)=O	-3.38
in Cc1cccc(C)c1	-3.37
in ClC(Cl)(Cl)Cl	-3.27
in ClC(Cl)Cl	-3.46
in ClCCCl	-2.8
in O	1.77

CCC(O)(CC)CC
Settings	solvation free energy, 298 K [kcal/mol]
in CCCCCCCC	-5.42
in CCCCCCCCCC	-5.34

C=CCCCCCCCCCC
Settings	solvation free energy, 298 K [kcal/mol]
in CN(C)C=O	-6.25
in O	2.58

Nc1ccc2ccccc2c1
Settings	solvation free energy, 298 K [kcal/mol]
in CCCCCC	-8.89
in CCCCCCCC	-8.96
in O	-7.47

CCCCOCCO
Settings	solvation free energy, 298 K [kcal/mol]
in O	-6.25

C=CC1(C)CCC(C(=C)C)CC1C(=C)C (centres undefined)
Settings	solvation free energy, 298 K [kcal/mol]
in O	-0.42

CCC=C(C)C
Settings	solvation free energy, 298 K [kcal/mol]
in C=CCCCCCCCCCCCCCC	-3.42
in CN1CCCC1=O	-3.06
in CN(C)C=O	-3.12
in O	1.47

CC(=O)C(C)O (centres undefined)
Settings	solvation free energy, 298 K [kcal/mol]
in O	-4.29

CCC(=O)CC(=O)CC
Settings	solvation free energy, 298 K [kcal/mol]
in O	-4.71

O=C(O)CCCCCCc1ccccc1
Settings	solvation free energy, 298 K [kcal/mol]
in O	-8.72

CCNc1nc(Cl)nc(NC(C)(C)C#N)n1
Settings	solvation free energy, 298 K [kcal/mol]
in O	-13.2
